From patent US5827896A, “Pinitol and derivatives thereof for the treatment of metabolic disorders” (priority 1996, dated 1998)
“And” between values parts separate entries of the source, which are not always exact repeats. Identical values can stand only once.

How the values were obtained:
clinical = settings: in vivo
Experimental: (§1) Five non-insulin-dependent diabetic subjects were studied on two occasions one week apart. For three days the subjects received pinitol 4.15 mg/kg/day orally in a drink once daily for 3 days. The preparation also contained 0.85 mg/kg/day D-chiro-inositol in other forms. The total inositol content by weight (including pinitol) was 22.5%. On the fourth day they took no morning dose of oral hypoglycemic agents and reported to the Clinical Research Center. Baseline blood samples were taken at -90 and -60 minutes, and at -60 minutes a dose of pinitol identical to that taken during the previous 3 days was given orally. The material contained less than 5 calories. At zero time 75 g glucose was given to begin a glucose tolerance test and blood samples were taken half-hourly for 3 hours. In random order the subjects received either myo-inositol (5 mg/kg/day) or soy pinitol (total inositol content 5 mg/kg/day). […] Plasma inositol levels were measured by gas chromatography/mass spectrometry and insulin levels were measured by RIA.

plasma insulin [1] = experiment: plasma insulin during oral glucose tolerance test (RIA) in non-insulin-dependent Type II diabetics (Example 3); assay type: in vivo, human
Experimental: as §1

plasma glucose [2] = experiment: plasma glucose during oral glucose tolerance test in non-insulin-dependent Type II diabetics (Example 3); assay type: in vivo, human
Text: The material contained less than 5 calories.

plasma free fatty acids = experiment: fasting plasma free fatty acids in NIDDM patients, placebo-controlled crossover (Example 5); assay type: in vivo, human; settings: 5 days
Experimental: (§2) 10 non-insulin-dependent diabetes patients maintained a pinitol and D-chiro-inositol-deficient diet (no legumes, or citrus fruits) throughout the study. […] The following table summarizes the characteristics of the patients.
(§3) Each subject received both placebo and soy-derived pinitol in separate tests. After an initial 5-day washout period the subjects received 5 days of treatment with either pinitol 5 mg/kg BID (total dose 10 mg/kg/day) or placebo without inositols. The material was given orally in 60 ml. calorie-free KOOL-AID drink.
(§4) Twelve hours after the last dose, two fasting plasma samples were drawn from each subject 15 minutes apart. Plasma free fatty acid levels were measured. A dose of pinitol was then given and a 3-hour glucose tolerance test was performed.
(§5) After a second 5-day washout period and another 5 days of pinitol or placebo feeding the testing was repeated. The order of treatment (pinitol or lacebo) was randomized and study investigatyors and those conducting the analyses were blinded to the order of treatment given.

[3] = fasting plasma pinitol and chiro-inositol levels in NIDDM patients (Example 5); assay type: in vivo, human
Experimental: as §2, §3, §4, §5

[4] = acid hydrolysis of pinitol to D-chiro-inositol in 6N HCl; assay type: physicochemical; settings: 24 hr at 110° in 6N HCl
Experimental: The highly standardized components of Purina Rodent Chow 5001 were analyzed by gas chromatography-mass spectrometry after hydrolysis in 6N HCI at 110° for 24 hr. to convert the pinitol to D-chiro-inositol and the results are presented in Table I below:
In contrast to other ether linkages it is not necessary to use concentrated hydrogen iodide to convert pinitol to D-chiro-inositol as detailed in U.S. Pat. No. 5,091,596.

plasma insulin [5] = settings: stated as basis for use as control; cited from earlier work
plasma glucose [6] = settings: stated as basis for use as control; cited from earlier work
[7] = before glucose, during pinitol treatment
[8] = compared to the pinitol-deficient diet

Compound: CO[C@H]1[C@H](O)[C@@H](O)[C@@H](O)[C@H](O)[C@@H]1O [Pinitol, 3-O-methyl-D-chiro-inositol]
- plasma D-chiro-inositol reached (clinical; human, 240 min): 1.7 µM
- Cmax at 3 h (clinical; human, po, 4.15 mg/kg/day): 5400 nM
- time of peak plasma pinitol after oral administration (clinical; po): three
- Insulin Area, Pinitol (plasma insulin [1]; 75 g glucose tolerance test, 3 hours, soy pinitol (total inositol 5 mg/kg/day orally), one value per subject (1-5)): 8844 μU/ml × minutes and 4032 μU/ml × minutes and 1518 μU/ml × minutes and 1566 μU/ml × minutes and 1197 μU/ml × minutes
- baseline insulin levels (plasma insulin [1]; [7]): unchanged
- reduction of insulin area during the glucose tolerance test (plasma insulin [1]; pinitol vs myo-inositol, five subjects, p=0.046): 25.2±8.9%
- Insulin Area, Percent Change (Reduction) (plasma insulin [1]; pinitol vs myo-inositol, one value per subject (1-5)): 51.1% and 12.3% and 32.6% and 30.6% and 0.5%
- baseline glucose levels (plasma glucose [2]; [7]): unchanged
- reduction in plasma glucose area (mg/dl×minutes) during the glucose tolerance test (plasma glucose [2]; pinitol vs myo-inositol, five subjects, p=0.11): 18.8±9.1%
- Fasting plasma free fatty acids (plasma free fatty acids; pinitol 5 mg/kg BID (10 mg/kg/day) orally, twelve hours after last dose, Mean ± SD, placebo 648 ± 244, P 0.05): 569 ± 276 µM
- reduction in mean fasting plasma free fatty acids (plasma free fatty acids; pinitol 5 mg/kg BID, vs placebo, p=0.05 by paired t-test): 12.2%
- plasma chiro-inositol on pinitol feeding [3, 8]: increased substantially
- plasma pinitol on pinitol feeding [3, 8]: increased substantially
- concentration at 12 h ([3]; human, plasma, po, pinitol 5 mg/kg BID orally, 5 days, twelve hours after last dose, Mean ± SD, placebo 0.014 ± 0.012, P <0.0001): 488 ± 290 nM
- conversion to D-chiro-inositol on acid hydrolysis [4]: quantitatively converted to D-chiro-inositol

Compound: O[C@H]1[C@H](O)[C@@H](O)[C@H](O)[C@@H](O)[C@H]1O [myo-Inositol, myo-inositol, reference compound]
- Insulin Area, myo-Inositol (plasma insulin [1]; 75 g glucose tolerance test, 3 hours, myo-inositol 5 mg/kg/day (control), one value per subject (1-5)): 18066 μU/ml × minutes and 4599 μU/ml × minutes and 2253 μU/ml × minutes and 2256 μU/ml × minutes and 1191 μU/ml × minutes
- effect on plasma insulin (plasma insulin [5]): no definite effect
- effect on plasma glucose (plasma glucose [6]): no definite effect
